Data taken from the NIST ThermoML archive (doi:10.1021/je060271a).
Values joined by “and” are separate entries in the source; they are usually repeats but may differ in a detail not shown here. Equal entries are not always repeated. Numbers after ± are expanded uncertainties.

Conditions: 303.16 K, Liquid, Vibrating tube method

CCCCCC(=O)OCC(COC(=O)CCCCC)(COC(=O)CCCCC)COC(=O)CCCCC [pentaerythritol tetrahexanoate]
Conditions	mass density
10818 kPa	995.1 ± 1.2 kg/m3
10847 kPa	995.1 ± 1.2 kg/m3
10876 kPa	995.3 ± 1.2 kg/m3
10911 kPa	995.2 ± 1.2 kg/m3
10941 kPa	995.3 ± 1.2 kg/m3
10972 kPa	995.3 ± 1.2 kg/m3
11002 kPa	995.2 ± 1.2 kg/m3
11031 kPa	995.3 ± 1.2 kg/m3
11066 kPa	995.3 ± 1.2 kg/m3
11454 kPa	995.6 ± 1.2 kg/m3
11487 kPa	995.6 ± 1.2 kg/m3
11513 kPa	995.6 ± 1.2 kg/m3
11540 kPa	995.6 ± 1.2 kg/m3
11571 kPa	995.7 ± 1.2 kg/m3
11596 kPa	995.6 ± 1.2 kg/m3
11626 kPa	995.6 ± 1.2 kg/m3
11790 kPa	995.8 ± 1.2 kg/m3
11810 kPa	995.6 ± 1.2 kg/m3
11820 kPa	995.9 ± 1.2 kg/m3
11829 kPa	995.8 ± 1.2 kg/m3
11924 kPa	995.8 ± 1.2 kg/m3
11933 kPa	995.7 ± 1.2 kg/m3
11944 kPa	995.8 ± 1.2 kg/m3
11958 kPa	995.9 ± 1.2 kg/m3
11979 kPa	995.9 ± 1.2 kg/m3
11996 kPa	996 ± 1.2 kg/m3
12017 kPa	996 ± 1.2 kg/m3
12842 kPa	996.5 ± 1.2 kg/m3
12884 kPa	996.5 ± 1.2 kg/m3
13029 kPa	996.6 ± 1.2 kg/m3
13048 kPa	996.5 ± 1.2 kg/m3
13072 kPa	996.5 ± 1.2 kg/m3
13092 kPa	996.6 ± 1.2 kg/m3
13112 kPa	996.6 ± 1.2 kg/m3
13136 kPa	996.7 ± 1.2 kg/m3
13156 kPa	996.5 ± 1.2 kg/m3
13176 kPa	996.6 ± 1.2 kg/m3
13200 kPa	996.7 ± 1.2 kg/m3
13220 kPa	996.6 ± 1.2 kg/m3
13241 kPa	996.7 ± 1.2 kg/m3
13266 kPa	996.7 ± 1.2 kg/m3
13286 kPa	996.7 ± 1.2 kg/m3
14924 kPa	997.7 ± 1.2 kg/m3
14953 kPa	997.6 ± 1.2 kg/m3
14977 kPa	997.7 ± 1.2 kg/m3
15002 kPa	997.7 ± 1.2 kg/m3
15135 kPa	997.8 ± 1.2 kg/m3
15160 kPa	997.8 ± 1.2 kg/m3
15189 kPa	997.8 ± 1.2 kg/m3
15214 kPa	997.8 ± 1.2 kg/m3
15239 kPa	997.8 ± 1.2 kg/m3
15264 kPa	997.9 ± 1.2 kg/m3
15318 kPa	997.9 ± 1.2 kg/m3
15342 kPa	997.9 ± 1.2 kg/m3
15371 kPa	997.9 ± 1.2 kg/m3
15394 kPa	997.9 ± 1.2 kg/m3
15422 kPa	997.9 ± 1.2 kg/m3
15445 kPa	998 ± 1.2 kg/m3
15468 kPa	998 ± 1.2 kg/m3
15492 kPa	998 ± 1.2 kg/m3
15520 kPa	998 ± 1.2 kg/m3
15543 kPa	998 ± 1.2 kg/m3
15567 kPa	997.9 ± 1.2 kg/m3
15595 kPa	998 ± 1.2 kg/m3
15618 kPa	998 ± 1.2 kg/m3
15865 kPa	998.4 ± 1.2 kg/m3
16816 kPa	998.8 ± 1.2 kg/m3
17240 kPa	999 ± 1.2 kg/m3
17241 kPa	999 ± 1.2 kg/m3
17243 kPa	999 ± 1.2 kg/m3
17245 kPa	999 ± 1.2 kg/m3
17258 kPa	999.1 ± 1.2 kg/m3
17279 kPa	999 ± 1.2 kg/m3
17302 kPa	999 ± 1.2 kg/m3
17313 kPa	999 ± 1.2 kg/m3
17343 kPa	999.1 ± 1.2 kg/m3
17353 kPa	999.1 ± 1.2 kg/m3 and 999 ± 1.2 kg/m3
17354 kPa	999.1 ± 1.2 kg/m3 and 999.2 ± 1.2 kg/m3
17601 kPa	999.3 ± 1.2 kg/m3
17625 kPa	999.2 ± 1.2 kg/m3
17654 kPa	999.2 ± 1.2 kg/m3
17675 kPa	999.2 ± 1.2 kg/m3
17704 kPa	999.3 ± 1.2 kg/m3
17727 kPa	999.3 ± 1.2 kg/m3
17750 kPa	999.5 ± 1.2 kg/m3
17777 kPa	999.3 ± 1.2 kg/m3
17799 kPa	999.3 ± 1.2 kg/m3
17825 kPa	999.3 ± 1.2 kg/m3
17847 kPa	999.3 ± 1.2 kg/m3
17869 kPa	999.3 ± 1.2 kg/m3
17891 kPa	999.4 ± 1.2 kg/m3
18682 kPa	999.8 ± 1.2 kg/m3
18706 kPa	999.9 ± 1.2 kg/m3
18735 kPa	999.9 ± 1.2 kg/m3
18759 kPa	999.9 ± 1.2 kg/m3
18784 kPa	999.9 ± 1.2 kg/m3
18808 kPa	1000 ± 1.2 kg/m3
18838 kPa	999.9 ± 1.2 kg/m3
18862 kPa	1000 ± 1.2 kg/m3
18892 kPa	1000 ± 1.2 kg/m3
23429 kPa	1002.6 ± 1.2 kg/m3
23459 kPa	1002.6 ± 1.2 kg/m3
23495 kPa	1002.6 ± 1.2 kg/m3
23525 kPa	1002.6 ± 1.2 kg/m3
23561 kPa	1002.7 ± 1.2 kg/m3
23592 kPa	1002.6 ± 1.2 kg/m3
23622 kPa	1002.8 ± 1.2 kg/m3
23653 kPa	1002.7 ± 1.2 kg/m3
23690 kPa	1002.8 ± 1.2 kg/m3
23720 kPa	1002.8 ± 1.2 kg/m3
23757 kPa	1002.7 ± 1.2 kg/m3
23788 kPa	1002.8 ± 1.2 kg/m3
23820 kPa	1002.9 ± 1.2 kg/m3
23856 kPa	1002.8 ± 1.2 kg/m3
23888 kPa	1002.8 ± 1.2 kg/m3
23920 kPa	1002.9 ± 1.2 kg/m3
23958 kPa	1002.9 ± 1.2 kg/m3
23990 kPa	1002.8 ± 1.2 kg/m3
24022 kPa	1002.9 ± 1.2 kg/m3
24054 kPa	1002.8 ± 1.2 kg/m3
24093 kPa	1003 ± 1.2 kg/m3
24125 kPa	1003 ± 1.2 kg/m3
24164 kPa	1003 ± 1.2 kg/m3
24196 kPa	1003.1 ± 1.2 kg/m3
24226 kPa	1003 ± 1.2 kg/m3
24255 kPa	1003.1 ± 1.2 kg/m3
24419 kPa	1003.2 ± 1.2 kg/m3
24447 kPa	1003.2 ± 1.2 kg/m3
24481 kPa	1003.2 ± 1.2 kg/m3
24509 kPa	1003.2 ± 1.2 kg/m3
24537 kPa	1003.1 ± 1.2 kg/m3
24571 kPa	1003.3 ± 1.2 kg/m3
24599 kPa	1003.3 ± 1.2 kg/m3
24628 kPa	1003.3 ± 1.2 kg/m3
24656 kPa	1003.4 ± 1.2 kg/m3
24691 kPa	1003.3 ± 1.2 kg/m3
24720 kPa	1003.3 ± 1.2 kg/m3
24749 kPa	1003.3 ± 1.2 kg/m3
24778 kPa	1003.3 ± 1.2 kg/m3
24812 kPa	1003.4 ± 1.2 kg/m3
24935 kPa	1003.4 ± 1.2 kg/m3
25029 kPa	1003.4 ± 1.2 kg/m3
25058 kPa	1003.4 ± 1.2 kg/m3
25094 kPa	1003.6 ± 1.2 kg/m3
